# Marks after values point to notes of the source that are not given here.
# Assays:
# [1] = test system: formalin test in mice; test: Formalin test; type: in vivo, albino Swiss mice
# Protocol: Injection of formalin into the dorsal surface of the hind paw of a mouse produces a biphasic nocifensive behavioral response; i.e., licking, biting, flinching or lifting of the injected paw. The acute (neurogenic) nociceptive phase lasts for the first 5 min and is followed by a period of little activity for the next 10 min. The first phase of the test is directly associated with nociceptor stimulation and the development of neurogenic inflammation. The second (late) phase occurs between 15 and 30 min after formalin injection. The second phase depends on peripheral inflammation and the central sensitization of pain. Since this phase reflects the activation of inflammatory processes, the compounds active in this phase of the experiment also have an anti-inflammatory effect. The tested compounds 19, 22 and 24, were investigated in three doses: 10, 20 and 40 mg/kg bw. ASA (acetylsalicylic acid) was used as a reference compound and administered in doses of 50, 100 and 200 mg/kg. […] The strongest effect in this assay was produced by 24. […] In addition, this anti-nociceptive and anti-inflammatory effect was approximately 13.8 times greater than that observed for the reference compound (ASA). […] ASA also attenuated statistically significant pain responses in the late phases of the formalin test. […] The in vivo experiments were carried out on male albino Swiss mice weighing 18–26 g and male Wistar rats weighing 150–180 g. The animals were housed in constant temperature facilities exposed to a 12:12 light-dark cycle and maintained on a standard pellet diet and tap water given ad libitum. The control and experimental groups consisted of 6–8 animals each. The investigated compounds were intraperitoneally (ip) administered in the form of a suspension in 0.5% methylcellulose. Control animals received the equivalent volume of solvent. All procedures were conducted according to the guidelines of ICLAS (International Council on Laboratory Animals Science) and were approved by the Local Ethics Committee of the Jagiellonian University in Kraków. The mice were pretreated with the test compound or the vehicle and were allowed to acclimate in Plexiglas observation chambers (20 × 30 × 15 cm) for 30 min before the test. Then, 20 μL of a 5% formalin solution was intraplantarly injected into the right hind paw using a 26-gauge needle. Immediately after formalin injection, the animals were individually placed into glass beakers and were observed during the next 30 min. Time (in seconds) spent on licking or biting the injected paw in selected intervals, 0–5, 15–20, 20–25 and 25–30 min, was measured in each experimental group and was an indicator of nociceptive behavior [41]. The ED50 values and their confidence limits were estimated by the method of Litchfield and Wilcoxon.
# [2] = test system: carrageenan-induced paw edema in rats; test: Carrageenan-induced paw edema test; type: in vivo, Wistar rats; settings: 20 mg/kg ip; for Change in Edema Volume 1 h / inhibition of edema, first hour: 1 h; for Change in Edema Volume 2 h / inhibition of edema, second hour: 2 h; for Change in Edema Volume 3 h / inhibition of edema, third hour: 3 h
# Protocol: The carrageenan test is used to evaluate the anti-inflammatory effect, as the injection of this compound into the hind paw of an animal induces long-lasting edema. The aim of the present study was to evaluate the anti-inflammatory (antiedematous) activity of the compounds tested: 19, 22 and 24. The compounds were administered at a dose of 20 mg/kg of body weight (bw).
# The in vivo experiments were carried out on male albino Swiss mice weighing 18–26 g and male Wistar rats weighing 150–180 g. The animals were housed in constant temperature facilities exposed to a 12:12 light-dark cycle and maintained on a standard pellet diet and tap water given ad libitum. The control and experimental groups consisted of 6–8 animals each. The investigated compounds were intraperitoneally (ip) administered in the form of a suspension in 0.5% methylcellulose. Control animals received the equivalent volume of solvent. All procedures were conducted according to the guidelines of ICLAS (International Council on Laboratory Animals Science) and were approved by the Local Ethics Committee of the Jagiellonian University in Kraków.
# Rats were divided into four groups, one of them being the control. In order to produce inflammation, 0.1 mL of 1% carrageenan solution in water was injected into the hind paw subplantar tissue of rats, according to the modified method of C. A. Winter and P. Lence. […] Prior to the administration of test substances, paw diameters were measured by dividers and recorded. The investigated compounds were administered at a dose of 20 mg/kg, ip (as a suspension in methylcellulose), prior to carrageenan injection. […] After these administrations, paw diameters were measured at 1, 2 and 3 h. The edema % and edema inhibition % were calculated according to the formulas given below. Edema% = (N′ × 100)/N Edema inhibition% = (N – N′ × 100)/N
# N: Paw diameters measured 1, 2 and 3 h after injection of carrageenan to the control group—paw diameters at the beginning.
# N′: Paw diameters measured 1, 2 and 3 h after injection of carrageenan to the test groups—paw diameters at the beginning.
# [3] = test system: SH-SY5Y cells; test: Neurotoxicity, MTS cell viability; type: cell-based, human; settings: 0.098 μM to 100 μM, 24 h
# Protocol: Drug safety is a critical step in the process of drug development. […] In our studies, neurotoxicity and hepatotoxicity were evaluated in SH-SY5Y and HepG2 cells, respectively. The compounds were tested at 11 concentrations from 0.098 μM to 100 μM (see Figure 5). Cell viability was assessed after incubation for 24 h with the SH-SY5Y line and for 48 h with the HepG2 line.
# To evaluate neurotoxicity and hepatotoxicity, the human neuroblastoma cell line SH-SY5Y (ATCC® no. CRL-2266™) and hepatoma cell line HepG2 (ATCC® no. HB-8065™) were used, respectively. The cells (SH-SY5Y: 5 × 10^3 cells/100μL/well and HepG2: 7 × 10^3 cells/100 μL/well) were seeded in transparent 96-well plates (Nunc) in DMEM supplemented with 10% FBS and cultured overnight. The next day, the medium was changed to medium containing dimethylsulfoxide (DMSO < 0.1%, vehicle control) or an increasing concentration of compounds MZ-1483 (19), MZ-1490 (22) and MZ-1495 (24) ([…]–100 × 10^−6 M). To perform dose-response analysis, two-fold serial dilutions (11 points) were prepared. Treatment with compounds was performed for 48 h. After the incubation time, the cell viability was examined using an MTS-based [3-(4,5-dimethylthiazol-2-yl)-5-(3-carboxymethoxyphenyl)-2-(4-sulfophenyl)-2 H tetrazolium] CellTiter96® AQueous One Solution Cell Proliferation Assay (Promega, Madison, WI, USA) following the manufacturer’s protocol. Briefly, 20 μL of MTS solution was pipetted into each well containing 100 μL of culture or culture medium (negative control) and incubated at 37 °C for 1 h. After incubation time, formazan product turnover absorbance was measured at 490 nm using the microplate reader (Tecan Spark®, Tecan Group Ltd., Maennedorf, Switzerland). A reference wavelength of 630 nm was used.
smiles,measurement,setting,value
"C#CCn1c(=O)c2c(nc(NCc3ccccc3Cl)n2C)n(C)c1=O [compound 19, 8-((2-Chlorobenzyl)amino)-3,7-dimethyl-1-(prop-2-yn-1-yl)-3,7-dihydro-1H-purine-2,6-dione]",Late Phase Inhibition (%),"[1]; mice, 10 mg/kg ip",26.0%
same,Licking of the Hind Paw Early Phase (0–5 min) Mean ± SEM,"[1]; mice, 10 mg/kg ip",41.8 ± 5.5 s
same,Licking of the Hind Paw Late Phase (15–30 min) Mean ± SEM,"[1]; mice, 10 mg/kg ip",88.4 ± 5.6 s
same,Early Phase Inhibition (%),"[1]; mice, 20 mg/kg ip",0%
same,Late Phase Inhibition (%),"[1]; mice, 20 mg/kg ip",35.7%
same,Licking of the Hind Paw Early Phase (0–5 min) Mean ± SEM,"[1]; mice, 20 mg/kg ip",48.2 ± 10.0 s
same,Licking of the Hind Paw Late Phase (15–30 min) Mean ± SEM,"[1]; mice, 20 mg/kg ip",76.8 ± 26.4 s
same,Early Phase Inhibition (%),"[1]; mice, 40 mg/kg ip",0%
same,Late Phase Inhibition (%),"[1]; mice, 40 mg/kg ip",47.2%
same,Licking of the Hind Paw Early Phase (0–5 min) Mean ± SEM,"[1]; mice, 40 mg/kg ip",42.6 ± 2.8 s
same,Licking of the Hind Paw Late Phase (15–30 min) Mean ± SEM,"[1]; mice, 40 mg/kg ip",63.0 ± 6.6 ^b sec
same,Change in Edema Volume 1 h,[2],0.56 ± 0.13 mL
same,"inhibition of edema, first hour",[2],28.2%
same,Change in Edema Volume 2 h,[2],0.72 ± 0.09 mL
same,"inhibition of edema, second hour",[2],35.7%
same,Change in Edema Volume 3 h,[2],1.10 ± 0.21 mL
same,"inhibition of edema, third hour",[2],17.3%
same,"neurotoxicity, cell viability (in words)",[3],high safety profile
"C#CCn1c(=O)c2c(nc(NCc3c(F)cccc3Cl)n2C)n(C)c1=O [compound 22, 8-((2-Chloro-6-fluorobenzyl)amino)-3,7-dimethyl-1-(prop-2-yn-1-yl)-3,7-dihydro-1H-purine-2,6-dione]",Early Phase Inhibition (%),"[1]; mice, 10 mg/kg ip",0%
same,Late Phase Inhibition (%),"[1]; mice, 10 mg/kg ip",22.8%
same,Licking of the Hind Paw Early Phase (0–5 min) Mean ± SEM,"[1]; mice, 10 mg/kg ip",41.6 ± 5.4 s
same,Licking of the Hind Paw Late Phase (15–30 min) Mean ± SEM,"[1]; mice, 10 mg/kg ip",92.2 ± 6.5 s
same,Licking of the Hind Paw Early Phase (0–5 min) Mean ± SEM,"[1]; mice, 20 mg/kg ip",41.0 ± 8.6 s
same,Licking of the Hind Paw Late Phase (15–30 min) Mean ± SEM,"[1]; mice, 20 mg/kg ip",78.2 ± 20.3 s
same,Early Phase Inhibition (%),"[1]; mice, 40 mg/kg ip",5.8%
same,Late Phase Inhibition (%),"[1]; mice, 40 mg/kg ip",48.0%
same,Licking of the Hind Paw Early Phase (0–5 min) Mean ± SEM,"[1]; mice, 40 mg/kg ip",39.2 ± 1.3 s
same,Licking of the Hind Paw Late Phase (15–30 min) Mean ± SEM,"[1]; mice, 40 mg/kg ip",62.0 ± 5.2 ^b sec
same,Change in Edema Volume 1 h,[2],0.49 ± 0.08 mL
same,"inhibition of edema, first hour",[2],37.1%
same,Change in Edema Volume 2 h,[2],0.91 ± 0.05 mL
same,"inhibition of edema, second hour",[2],18.7%
same,Change in Edema Volume 3 h,[2],0.92 ± 0.06 mL
same,"inhibition of edema, third hour",[2],30.8%
same,"neurotoxicity, cell viability (in words)",[3],high safety profile
"C#CCn1c(=O)c2c(nc(NCc3cccc(Br)c3)n2C)n(C)c1=O [compound 24, 8-((3-Bromobenzyl)amino)-3,7-dimethyl-1-(prop-2-yn-1-yl)-3,7-dihydro-1H-purine-2,6-dione]",ED50,"[1]; Mus musculus, mice, II (late) phase, method of Litchfield and Wilcoxon, read-out: calculated ED50 in the formalin test",9.1 mg/kg
same,"effect, times greater than that of the reference compound (ASA)","[1]; formalin test, from ED50",approximately 13.8 times
same,Early Phase Inhibition (%),"[1]; mice, 10 mg/kg ip",0%
same,Late Phase Inhibition (%),"[1]; mice, 10 mg/kg ip",48.7%
same,Licking of the Hind Paw Early Phase (0–5 min) Mean ± SEM,"[1]; mice, 10 mg/kg ip",43.2 ± 6.6 s
same,Licking of the Hind Paw Late Phase (15–30 min) Mean ± SEM,"[1]; mice, 10 mg/kg ip",61.2 ± 6.4 ^b sec
same,Early Phase Inhibition (%),"[1]; mice, 20 mg/kg ip",24.5%
same,Late Phase Inhibition (%),"[1]; mice, 20 mg/kg ip",82.9%
same,Licking of the Hind Paw Early Phase (0–5 min) Mean ± SEM,"[1]; mice, 20 mg/kg ip",31.4 ± 5.0 s
same,Licking of the Hind Paw Late Phase (15–30 min) Mean ± SEM,"[1]; mice, 20 mg/kg ip",20.4 ± 10.6 ^d sec
same,Early Phase Inhibition (%),"[1]; mice, 40 mg/kg ip",26.0%
same,Late Phase Inhibition (%),"[1]; mice, 40 mg/kg ip",89.7%
same,Licking of the Hind Paw Early Phase (0–5 min) Mean ± SEM,"[1]; mice, 40 mg/kg ip",30.8 ± 6.7 s
same,Licking of the Hind Paw Late Phase (15–30 min) Mean ± SEM,"[1]; mice, 40 mg/kg ip",12.2 ± 3.3 ^d sec
same,Change in Edema Volume 1 h,[2],0.38 ± 0.02 ^a mL
same,"inhibition of edema, first hour",[2],51.2%
same,Change in Edema Volume 2 h,[2],0.63 ± 0.14 ^a mL
same,"inhibition of edema, second hour",[2],43.8%
same,Change in Edema Volume 3 h,[2],0.69 ± 0.01 ^b mL
same,"inhibition of edema, third hour",[2],48.1%
same,"neurotoxicity, cell viability (in words)",[3],high safety profile

# Source: article PMC10531311, “Anti-Inflammatory Activities of 8-Benzylaminoxanthines Showing High Adenosine A2A and Dual A1/A2A Receptor Affinity” (International Journal of Molecular Sciences, 2023)
